Test results as given in PMC9027532, “Preclinical Pharmacokinetic Studies of a Novel Diuretic Inhibiting Urea Transporters” (Molecules, 2022).
Where “and” joins values, the source holds several entries; their conditions need not be identical. Equal entries are not always repeated.

Tests used:
[1] = Excretion experiment in bile duct cannulated rats (bile); type: in vivo, SD rats; settings: single oral dose 100 mg/kg
Experimental: (§1) The cumulative excretion ratios of unchanged 25a in the urine, feces, and bile of rats after a single oral dose at 100 mg/kg were 0.14% ± 0.05%, 3.16% ± 0.96%, and 0.018% ± 0.006%, respectively (Figure 6 and Tables S5–S7). […] Further phenotyping and metabolite identification studies should be conducted to elucidate the major elimination forms of 25a in the future.
(§2) Four SD rats were adapted in metabolic cages for 3 days in advance and then administrated with 25a at 100 mg/kg orally. Feces and urine were collected and weighed at 0–6 h, 6–12 h, […], 24–36 h, 36–48 h, 48–60 h, and 60–72 h after administration. Parallelly, four SD rats received bile duct cannulation and were given a single dose of 25a at 100 mg/kg orally. Bile was collected and weighed at 0–2 h, 0–4 h, 0–6 h, 0–8 h, 0–10 h, 0–12 h, 0–24 h, 0–36 h, and 0–48 h after administration. All samples were stored at −80 °C until analysis.

[2] = Excretion experiment in rats (urine, feces); type: in vivo, SD rats; settings: single oral dose 100 mg/kg
Experimental: as §1, §2

CC(=O)Nc1ccc(NC(=O)c2ccc(C(C)=O)o2)cc1 [Compound 25a, N-(4-acetamidophenyl)-5-acetylfuran-2-carboxamide]
Accumulated Amount in bile ([1]; 0-2 h): 0.531 ± 0.233 µg | Concentration in bile ([1]; 0-2 h): 220.5 ± 44.4 ng/mL | The cumulative excretion ratio in bile ([1]; 0-2 h): 0.0022 ± 0.0011% | Accumulated Amount in bile ([1]; 0-4 h): 1.138 ± 0.434 µg | Concentration in bile ([1]; 0-4 h): 192.3 ± 52.3 ng/mL | The cumulative excretion ratio in bile ([1]; 0-4 h): 0.0048 ± 0.0022% | Accumulated Amount in bile ([1]; 0-6 h): 1.451 ± 0.481 µg | Concentration in bile ([1]; 0-6 h): 161.3 ± 55.4 ng/mL | The cumulative excretion ratio in bile ([1]; 0-6 h): 0.0061 ± 0.0023% | Accumulated Amount in bile ([1]; 0-8 h): 1.783 ± 0.489 µg | Concentration in bile ([1]; 0-8 h): 169.5 ± 57.2 ng/mL | The cumulative excretion ratio in bile ([1]; 0-8 h): 0.0074 ± 0.0023% | Accumulated Amount in bile ([1]; 0-10 h): 2.215 ± 0.603 µg | Concentration in bile ([1]; 0-10 h): 156.8 ± 23.8 ng/mL | The cumulative excretion ratio in bile ([1]; 0-10 h): 0.0092 ± 0.0026% | Accumulated Amount in bile ([1]; 0-12 h): 2.888 ± 0.929 µg | Concentration in bile ([1]; 0-12 h): 147.3 ± 27.7 ng/mL | The cumulative excretion ratio in bile ([1]; 0-12 h): 0.0120 ± 0.0043% | Accumulated Amount in bile ([1]; 0-24 h): 3.664 ± 1.010 µg | Concentration in bile ([1]; 0-24 h): 83.5 ± 19.9 ng/mL | The cumulative excretion ratio in bile ([1]; 0-24 h): 0.0152 ± 0.0045% | Accumulated Amount in bile ([1]; 0-36 h): 4.113 ± 1.058 µg | Concentration in bile ([1]; 0-36 h): 40.7 ± 21.1 ng/mL | The cumulative excretion ratio in bile ([1]; 0-36 h): 0.0171 ± 0.0049% | Accumulated Amount in bile ([1]; 0-48 h): 4.300 ± 1.184 µg | Concentration in bile ([1]; 0-48 h): 17.9 ± 17.1 ng/mL | The cumulative excretion ratio in bile ([1]; 0-48 h): 0.0179 ± 0.0057% | cumulative excretion ratio of unchanged 25a in bile ([1]; 100 mg/kg): 0.018% and 0.018% ± 0.006% | total cumulative excretion fractions of unchanged 25a in urine, feces, and bile [2]: less than 5% | Accumulated Amount in feces ([2]; 0-6 h): 0.248 ± 0.056 mg | Accumulated Amount in urine ([2]; 0-6 h): 0.0129 ± 0.0059 mg | Concentration in feces ([2]; 0-6 h): 6547.5 ± 1407.8 ng/mL | Concentration in urine ([2]; 0-6 h): 1865.0 ± 576.4 ng/mL | The cumulative excretion ratio in feces ([2]; 0-6 h): 1.009 ± 0.233% | The cumulative excretion ratio in urine ([2]; 0-6 h): 0.051 ± 0.021% | cumulative excretion ratio of unchanged 25a in feces ([2]; 100 mg/kg): 3.16% and 3.16% ± 0.96% | cumulative excretion ratio of unchanged 25a in urine ([2]; 100 mg/kg): 0.14% and 0.14% ± 0.05% | Accumulated Amount in feces ([2]; 6-12 h): 0.565 ± 0.130 mg | Accumulated Amount in urine ([2]; 6-12 h): 0.0221 ± 0.0046 mg | Concentration in feces ([2]; 6-12 h): 9237.5 ± 2337.8 ng/mL | Concentration in urine ([2]; 6-12 h): 1696.3 ± 1,244.3 ng/mL | The cumulative excretion ratio in feces ([2]; 6-12 h): 2.261 ± 0.383% | The cumulative excretion ratio in urine ([2]; 6-12 h): 0.089 ± 0.018% | Accumulated Amount in feces ([2]; 12-24 h): 0.798 ± 0.309 mg | Accumulated Amount in urine ([2]; 12-24 h): 0.0305 ± 0.0066 mg | Concentration in feces ([2]; 12-24 h): 6053.3 ± 4545.2 ng/mL | Concentration in urine ([2]; 12-24 h): 869.3 ± 442.0 ng/mL | The cumulative excretion ratio in feces ([2]; 12-24 h): 3.139 ± 0.954% | The cumulative excretion ratio in urine ([2]; 12-24 h): 0.125 ± 0.037% | Accumulated Amount in feces ([2]; 24-36 h): 0.802 ± 0.310 mg | Accumulated Amount in urine ([2]; 24-36 h): 0.0317 ± 0.0077 mg | Concentration in feces ([2]; 24-36 h): 188.2 ± 121.9 ng/mL | Concentration in urine ([2]; 24-36 h): 132.4 ± 108.1 ng/mL | The cumulative excretion ratio in feces ([2]; 24-36 h): 3.153 ± 0.957% | The cumulative excretion ratio in urine ([2]; 24-36 h): 0.131 ± 0.042% | Accumulated Amount in feces ([2]; 36-48 h): 0.802 ± 0.310 mg | Accumulated Amount in urine ([2]; 36-48 h): 0.0327 ± 0.0085 mg | Concentration in feces ([2]; 36-48 h): 7.0 ± 8.8 ng/mL | Concentration in urine ([2]; 36-48 h): 104.4 ± 95.7 ng/mL | The cumulative excretion ratio in feces ([2]; 36-48 h): 3.155 ± 0.956% | The cumulative excretion ratio in urine ([2]; 36-48 h): 0.135 ± 0.047% | Accumulated Amount in feces ([2]; 48-60 h): 0.802 ± 0.310 mg | Accumulated Amount in urine ([2]; 48-60 h): 0.0332 ± 0.0089 mg | Concentration in feces ([2]; 48-60 h): 2.1 ± 3.1 ng/mL | Concentration in urine ([2]; 48-60 h): 49.6 ± 31.9 ng/mL | The cumulative excretion ratio in feces ([2]; 48-60 h): 3.155 ± 0.956% | The cumulative excretion ratio in urine ([2]; 48-60 h): 0.137 ± 0.049% | Accumulated Amount in feces ([2]; 60-72 h): 0.802 ± 0.310 mg | Accumulated Amount in urine ([2]; 60-72 h): 0.0337 ± 0.0090 mg | Concentration in feces ([2]; 60-72 h): 3.8 ± 3.8 ng/mL | Concentration in urine ([2]; 60-72 h): 32.5 ± 11.2 ng/mL | The cumulative excretion ratio in feces ([2]; 60-72 h): 3.156 ± 0.955% | The cumulative excretion ratio in urine ([2]; 60-72 h): 0.139 ± 0.049%
